The record followed here is ChEMBL document CHEMBL3120150, “Syntheses and structure-activity relationships for some triazolyl p38α MAPK inhibitors” (Bioorg Med Chem Lett, 2014).

The source made the active and inactive calls. No cut-off for these calls is given here.

One may read the IC50 as the concentration at which inhibition is half-maximal. Low readings indicate greater potency in that assay, high ones weaker potency in that assay.

For one assay, the target named is Mitogen-activated protein kinase 14 (Homo sapiens, UniProt Q16539). Description: Inhibition of p38a MAPK (unknown origin) by radiometric assay.
Chain of Mitogen-activated protein kinase 14 (Q16539 whole entry): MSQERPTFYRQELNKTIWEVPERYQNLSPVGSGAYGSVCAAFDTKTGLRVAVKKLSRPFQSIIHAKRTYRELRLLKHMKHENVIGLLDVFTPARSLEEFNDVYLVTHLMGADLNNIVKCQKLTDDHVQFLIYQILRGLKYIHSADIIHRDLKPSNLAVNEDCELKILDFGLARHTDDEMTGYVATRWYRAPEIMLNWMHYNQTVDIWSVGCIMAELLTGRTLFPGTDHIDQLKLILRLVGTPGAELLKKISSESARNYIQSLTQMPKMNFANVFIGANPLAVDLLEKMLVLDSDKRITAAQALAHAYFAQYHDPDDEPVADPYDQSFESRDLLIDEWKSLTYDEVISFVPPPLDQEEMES
Conditions: not given
Molecule `Oc1ccccc1-n1cc(-c2nc(-c3ccc(F)cc3)c(-c3ccncc3)o2)nn1` came in with a concentration for half-maximal inhibition (IC50) of 2.17 µM.

As to `Cn1c(-c2cn([C@@H](CC(=O)O)C(=O)O)nn2)nc(-c2ccc(F)cc2)c1-c1ccncc1`, half-maximal inhibition (IC50) was put at 2.3 µM. The IC50 values of the last two molecules are within 1.5-fold of each other.

The molecule `CCOC(=O)Cn1cc(-c2nc(-c3ccc(F)cc3)c(-c3ccncc3)n2C)nn1` came in with an IC50 of 1.87 µM.

`Cn1c(-c2cn(-c3cccc(C(=O)O)c3)nn2)nc(-c2ccc(F)cc2)c1-c1ccncc1` [listing 1 of 2 here]: it took 0.185 µM to reach half-maximal inhibition (IC50). This IC50 lies about 10-fold lower than the previous one.

`OCCOCCOCCOCCn1cc(-c2nc(-c3ccc(F)cc3)c(-c3ccncc3)o2)nn1` had an IC50 of 12.5 µM.

`Fc1ccc(-c2nc(-c3cn(Cc4ccccc4)nn3)oc2-c2ccncc2)cc1` came in with an IC50 of 158 µM. Against the preceding molecule, the IC50 is about 13-fold higher.

For `Cn1c(-c2cn(C[C@H]3O[C@@H](O)[C@H](O)[C@@H](O)[C@@H]3O)nn2)nc(-c2ccc(F)cc2)c1-c1ccncc1`, the concentration for half-maximal inhibition (IC50) was 0.4 µM.

In the case of `CC(=O)OC[C@H]1O[C@H](OC(C)=O)[C@H](n2cc(-c3nc(-c4ccc(F)cc4)c(-c4ccncc4)n3C)nn2)[C@@H](OC(C)=O)[C@@H]1OC(C)=O`, the IC50 was over 100 µM.

`C[C@@H](C(=O)O)n1cc(-c2nc(-c3ccc(F)cc3)c(-c3ccncc3)o2)nn1` registered an IC50 of 11.4 µM.

Molecule `CCOP(=O)(CCn1cc(-c2nc(-c3ccc(F)cc3)c(-c3ccncc3)n2C)nn1)OCC` yielded an IC50 of over 100 µM.

On to `CN(C)c1ccc(-n2cc(-c3nc(-c4ccc(F)cc4)c(-c4ccncc4)o3)nn2)cc1`, for which the IC50 worked out at 19.5 µM.

`OC[C@H]1O[C@H](O)[C@H](n2cc(-c3nc(-c4ccc(F)cc4)c(-c4ccncc4)o3)nn2)[C@@H](O)[C@@H]1O` returned an IC50 of 1.19 µM.

Consider `Cn1c(-c2cn([C@@H]3[C@@H](O)[C@H](O)[C@@H](CO)O[C@@H]3O)nn2)nc(-c2ccc(F)cc2)c1-c1ccncc1`, for which the IC50 was 0.71 µM.

In turn, `OCCOCCOCCOCCOCCOCCOCCOCCn1cc(-c2nc(-c3ccc(F)cc3)c(-c3ccncc3)o2)nn1` returned an IC50 of 23.5 µM.

Molecule `CN(C)c1ccc(-n2cc(-c3nc(-c4ccc(F)cc4)c(-c4ccncc4)n3C)nn2)cc1` gave a half-inhibitory concentration (IC50) of 1.4 µM.

In the case of `Cn1c(-c2cn(CCOCCOCCOCCN)nn2)nc(-c2ccc(F)cc2)c1-c1ccncc1`, the IC50 stood at 5.18 µM.

Turning to `Cn1c(-c2cn(CC(=O)N3CCN(CCO)CC3)nn2)nc(-c2ccc(F)cc2)c1-c1ccncc1`, the IC50 came out at 3.8 µM.

`C[C@@H](C(=O)O)n1cc(-c2nc(-c3ccc(F)cc3)c(-c3ccncc3)n2C)nn1` had an IC50 of 1.44 µM.

For the molecule `C[C@H](Nc1nccc(-c2c(-c3ccc(F)cc3)nc3nc(N)ccn23)n1)c1ccccc1`, inhibition was half-maximal at 0.006 µM (IC50).

On to `Cn1c(-c2cn(-c3cccc(C(=O)O)c3)nn2)nc(-c2ccc(F)cc2)c1-c1ccncc1` [listing 2 of 2 here], for which the IC50 amounted to 0.091 µM. This IC50 is about 15-fold higher than that of the molecule before.

In turn, `Cn1c(-c2cn(CC(=O)NCCO)nn2)nc(-c2ccc(F)cc2)c1-c1ccncc1` displayed an IC50 of 0.89 µM. Compared with the last molecule, the IC50 is about 9.8-fold higher.

Regarding `O=C(O)Cn1cc(-c2nc(-c3ccc(F)cc3)c(-c3ccncc3)o2)nn1`, the IC50 stood at 3.2 µM. This IC50 is about 3.6-fold higher than that of the molecule before.

The molecule `Cn1c(-c2cn(C(C)(C)C(=O)O)nn2)nc(-c2ccc(F)cc2)c1-c1ccncc1` registered an IC50 of 1.49 µM.

`Cn1c(-c2cn(CCOP(=O)(O)O)nn2)nc(-c2ccc(F)cc2)c1-c1ccncc1`: the IC50 was determined as 0.25 µM.

For the molecule `Cn1c(-c2cn(-c3ccc(C(=O)O)cc3)nn2)nc(-c2ccc(F)cc2)c1-c1ccncc1`, the IC50 was 0.14 µM.

As for `O=C(O)c1ccc(-n2cc(-c3nc(-c4ccc(F)cc4)c(-c4ccncc4)o3)nn2)cc1`, it took 0.19 µM to reach half-maximal inhibition (IC50).

In turn, `Cn1c(-c2cn(-c3cccc(C(=O)NCCCO)c3)nn2)nc(-c2ccc(F)cc2)c1-c1ccncc1` registered an IC50 of 0.29 µM. Compared with the last molecule, the IC50 is about 1.5-fold higher.

`Cn1cnc(-c2ccc(F)cc2)c1-c1ccncc1`: the IC50 is 0.43 µM.

Take `Cn1c(-c2cn([C@H]3CCNC[C@@H]3F)nn2)nc(-c2ccc(F)cc2)c1-c1ccncc1`: the IC50 was determined as 0.096 µM.

As for `Cn1c(-c2cn(CC(=O)O)nn2)nc(-c2ccc(F)cc2)c1-c1ccncc1` [listing 1 of 2 here], the IC50 worked out at 0.43 µM.

Consider `CC(=O)OC[C@H]1O[C@H](OC(C)=O)[C@H](n2cc(-c3nc(-c4ccc(F)cc4)c(-c4ccncc4)o3)nn2)[C@@H](OC(C)=O)[C@@H]1OC(C)=O`, for which the IC50 is over 100 µM.

As to `Cn1c(-c2cn(CCOCCOCCOCCO)nn2)nc(-c2ccc(F)cc2)c1-c1ccncc1`, the IC50 came out at 11.2 µM. In other words, the double-digit micromolar range.

Turning to `Cn1c(-c2cn(CCO)nn2)nc(-c2ccc(F)cc2)c1-c1ccncc1`, half-maximal inhibition (IC50) was put at 0.5 µM.

In the case of `COC(=O)c1cccc(-n2cc(-c3nc(-c4ccc(F)cc4)c(-c4ccncc4)n3C)nn2)c1`, the IC50 stood at 0.99 µM.

`O=C(O)c1ccccc1-n1cc(-c2nc(-c3ccc(F)cc3)c(-c3ccncc3)o2)nn1` registered a half-maximal inhibitory concentration (IC50) of 6.51 µM.

`Cn1c(-c2cn(CCOCCOCCOCCOCCOCCOCCOCCO)nn2)nc(-c2ccc(F)cc2)c1-c1ccncc1` gave a concentration for half-maximal inhibition (IC50) of 11.6 µM.

In turn, `O=C(O)[C@H]1OC(n2cc(-c3nc(-c4ccc(F)cc4)c(-c4ccncc4)o3)nn2)[C@H](O)[C@@H](O)[C@@H]1O` (some centres undefined) had an IC50 of 1.17 µM.

Regarding `Cn1c(-c2c[nH]nn2)nc(-c2ccc(F)cc2)c1-c1ccncc1`, the 50% inhibitory concentration (IC50) stood at 0.14 µM.

With `Cn1c(-c2cn(-c3ccccc3C(=O)O)nn2)nc(-c2ccc(F)cc2)c1-c1ccncc1`, the IC50 is 1.53 µM. Compared with the last molecule, the IC50 is about 11-fold higher.

Turning to `Cn1c(-c2cn(CC(=O)O)nn2)nc(-c2ccc(F)cc2)c1-c1ccncc1` [listing 2 of 2 here], the IC50 worked out at 0.74 µM.

In turn, `O[C@@H]1[C@@H](O)[C@H](O)O[C@H](Cn2cc(-c3nc(-c4ccc(F)cc4)c(-c4ccncc4)o3)nn2)[C@H]1O` had an IC50 of 5.73 µM. This IC50 lies about 7.7-fold higher than the previous one.

For the molecule `Cn1c(C#CCO)nc(-c2ccc(F)cc2)c1-c1ccncc1`, the IC50 was determined as 0.46 µM.

In the case of `Cn1c(-c2cn(CCP(=O)(O)O)nn2)nc(-c2ccc(F)cc2)c1-c1ccncc1`, 0.35 µM corresponded to half-maximal inhibition (IC50).

For the molecule `Fc1ccc(-c2nc(-c3c[nH]nn3)oc2-c2ccncc2)cc1`, the IC50 was determined as 0.38 µM. The IC50 values of the last two molecules are within 1.5-fold of each other.

In turn, `Cn1c(-c2cn(C3O[C@H](C(=O)O)[C@@H](O)[C@H](O)[C@H]3O)nn2)nc(-c2ccc(F)cc2)c1-c1ccncc1` (some centres undefined) returned a half-maximal inhibitory concentration (IC50) of 0.59 µM.

Take `Cn1c(-c2cnnn2CC(=O)O)nc(-c2ccc(F)cc2)c1-c1ccncc1`: the IC50 came to 4.2 µM. Compared with the last molecule, the IC50 is about 7.1-fold higher.

Molecule `C#Cc1nc(-c2ccc(F)cc2)c(-c2ccncc2)n1C` returned an IC50 of 0.73 µM.

Turning to `O=C(c1ccc(-n2cc(-c3nc(-c4ccc(F)cc4)c(-c4ccncc4)o3)nn2)cc1)N1CCN(CCO)CC1`, 2.4 µM corresponded to half-maximal inhibition (IC50).

`CCOC(=O)Cn1nncc1-c1nc(-c2ccc(F)cc2)c(-c2ccncc2)n1C` yielded an IC50 of 56 µM.

`C#Cc1nc(-c2ccc(F)cc2)c(-c2ccncc2)o1` came in with an IC50 of 1.79 µM.

The molecule `Cn1c(-c2cn(-c3ccccc3O)nn2)nc(-c2ccc(F)cc2)c1-c1ccncc1` had an IC50 of 1.59 µM.

The test system of a further assay is HUVEC. Description: Inhibition of TNFalpha-induced IL-6 gene expression in HUVEC at 10 uM. The format is functional, cell-based. To be noted: Homo sapiens.
`Cn1c(-c2cn([C@@H]3[C@@H](O)[C@H](O)[C@@H](CO)O[C@@H]3O)nn2)nc(-c2ccc(F)cc2)c1-c1ccncc1`: the inhibition entry is “Active”.

As to `C[S+]([O-])c1ccc(-c2nc(-c3ccc(F)cc3)c(-c3ccncc3)[nH]2)cc1` (centres undefined), the inhibition entry was “Active”.

With `Cn1cnc(-c2ccc(F)cc2)c1-c1ccncc1`, the inhibition entry is “Active”.

Turning to `Cn1c(-c2cn([C@H]3CCNC[C@@H]3F)nn2)nc(-c2ccc(F)cc2)c1-c1ccncc1`, the inhibition entry was “Active”.

In a further assay the test system is HUVEC. Description: Inhibition of TNFalpha-induced COX2 gene expression in HUVEC at 10 uM. The format is functional, cell-based. To be noted: Homo sapiens.
For `Cn1c(-c2cn([C@@H]3[C@@H](O)[C@H](O)[C@@H](CO)O[C@@H]3O)nn2)nc(-c2ccc(F)cc2)c1-c1ccncc1`, the inhibition entry is “Active”.

Consider `C[S+]([O-])c1ccc(-c2nc(-c3ccc(F)cc3)c(-c3ccncc3)[nH]2)cc1` (centres undefined), for which the inhibition entry was “Active”.

On to `Cn1cnc(-c2ccc(F)cc2)c1-c1ccncc1`, for which the inhibition entry is “Active”.

Turning to `Cn1c(-c2cn([C@H]3CCNC[C@@H]3F)nn2)nc(-c2ccc(F)cc2)c1-c1ccncc1`, the inhibition result was “Active”.
